In US10508109B2 (priority 2015, dated 2019):
Where a name gives a salt, the structure may show the parent alone. Read-outs that look alike come from different tables or passages of the source.

Columns and labels:
SUV39H2 = SUV39H2 (Homo sapiens (Human), UniProt Q9H5I1); assay: biochemical; type: biochemical; conditions: 3H-SAM 100 nM, H3 Histone Peptide 350 nM, room temperature 3 hours
Method: Assay buffer (4 μL) was added into all the wells, including test compound and control wells (except for Sinefungin control wells), using the Multidrop Combi. The plate was centrifuged at 1000 rpm for 1 min. […] SUV39H2 (8 μL, final conc: optimized for each lot of the enzyme based on specific activity) was added by using the Multidrop Combi. The assay plate was centrifuged at 1000 rpm for 1 min. Assay buffer was used as background control, and incubated at room temperature for 3 hours. The reaction was stopped with 20 μL of 2.5 mg/mL Streptavidin SPA beads (final conc. 50 μg/well) in buffer using the Multidrop Combi and centrifuged for 1 min. The plate was loaded into the Trilux-Microbeta counter and a delayed read of 10 hours was made. The radioactive signal was measured at 1 min/well. Sinefungin and the internal standard compound were used as tool compounds to determine assay performance.
• The following calculations were made using the obtained CPM raw data: Software used: XLFit from IDBS.
For each test plate the following results were calculated: • Average, Standard Deviation, and % CV of Background Controls • Average, Standard Deviation, and % CV of Positive Controls • Z′ value of the plate • IC50 values of standard and test compounds (in nM) • R^2 value of fitted concentration response curve • Hill slope coefficient of fitted concentration response curve • Signal to Noise Ratio

A549 = assay: Cell-based assay, anti-proliferative activity (Cell Counting Kit-8, 72 hours); conditions: Homo sapiens, read-out: A549 IC50
Method in brief: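 Growth read-out after inhibitor treatment of plated cells; potency expressed as IC50.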

[1] = A549 cells, 72 hours exposure, Cell Counting Kit-8

SUV39H2, sequence (Q9H5I1 whole entry): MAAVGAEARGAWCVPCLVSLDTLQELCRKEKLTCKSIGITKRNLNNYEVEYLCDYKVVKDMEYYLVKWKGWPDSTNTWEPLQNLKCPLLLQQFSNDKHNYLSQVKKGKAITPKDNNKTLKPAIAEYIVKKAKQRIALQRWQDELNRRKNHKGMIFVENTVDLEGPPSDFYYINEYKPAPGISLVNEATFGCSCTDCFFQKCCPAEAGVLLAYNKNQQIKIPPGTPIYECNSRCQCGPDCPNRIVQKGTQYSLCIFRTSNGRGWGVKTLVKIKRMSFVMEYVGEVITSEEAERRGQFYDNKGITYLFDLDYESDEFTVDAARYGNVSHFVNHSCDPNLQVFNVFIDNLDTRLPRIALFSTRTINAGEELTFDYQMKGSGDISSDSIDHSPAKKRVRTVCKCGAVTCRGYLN

| SMILES | IC50 (SUV39H2) [nM] | IC50 (A549; [1]) [nM] | IC50 (A549; A549, 72 h) [nM] |
| --- | --- | --- | --- |
| COc1cc(OC)c(-c2cn3ccc(N4CCN(c5ccnc(N6CCC(N)CC6)n5)CC4)cc3n2)cc1Cl [Example 338, 1-(4-(4-(2-(5-chloro-2,4-dimethoxyphenyl)imidazo[1,2-a]pyridin-7-yl)piperazin-1-yl)pyrimidin-2-yl)piperidin-4-amine] | 17 | 1200 | – |
| CNc1ncc(N2CCN(c3ccn4cc(-c5cc(Cl)c(OC)cc5OC)nc4c3)CC2)cn1 [Example 340, 5-(4-(2-(5-chloro-2,4-dimethoxyphenyl)imidazo[1,2-a]pyridin-7-yl)piperazin-1-yl)-N-methylpyrimidin-2-amine trifluoroacetate] | 17.1 | 690 | – |
| COc1cc(OC)c(-c2cn3ccc(N4CCN(c5ccnc(N6CCNCC6)n5)CC4)cc3n2)cc1Cl [Example 341, 2-(5-chloro-2,4-dimethoxyphenyl)-7-(4-(2-(piperazin-1-yl)pyrimidin-4-yl)piperazin-1-yl)imidazo[1,2-a]pyridine] | 23.4 | – | 740 |
| COc1cc(OC)c(-c2cn3ccc(NC4CCN(Cc5ccc([N+](=O)[O-])o5)CC4)cc3n2)cc1Cl [Example 343, 2-(5-chloro-2,4-dimethoxyphenyl)-N-(1-((5-nitrofuran-2-yl)methyl)piperidin-4-yl)imidazo[1,2-a]pyridin-7-amine] | 47.9 | 910 | – |
| COc1cc(OC)c(-c2cn3ccc(N4CCN(Cc5ccncc5Br)CC4)cc3n2)cc1Cl [Example 345, 7-(4-((3-bromopyridin-4-yl)methyl)piperazin-1-yl)-2-(5-chloro-2,4-dimethoxyphenyl)imidazo[1,2-a]pyridine] | 35.4 | 850 | – |
| COc1cc(OC)c(-c2cn3ccc(N4CCN(c5ccnc(N6CCC(O)C6)n5)CC4)cc3n2)cc1Cl (stereo not drawn) [Example 346, 1-(4-(4-(2-(5-chloro-2,4-dimethoxyphenyl)imidazo[1,2-a]pyridin-7-yl)piperazin-1-yl)pyrimidin-2-yl)pyrrolidin-3-ol] | 15.3 | – | 590 |
| COc1cc(OC)c(-c2cn3ccc(N[C@H]4CC[C@@H](N(C)Cc5ccccc5C)CC4)cc3n2)cc1Cl [Example 348, cis-N^1-(2-(5-chloro-2,4-dimethoxyphenyl)imidazo[1,2-a]pyridin-7-yl)-N^4-methyl-N^4-(2-methylbenzyl)cyclohexane-1,4-diamine bis(2,2,2-trifluoroacetate)] | 31.2 | 750 | – |
| COc1cc(OC)c(-c2cn3ccc(N4CCN(c5ncc([N+](=O)[O-])cc5C#N)CC4)cc3n2)cc1Cl [Example 349, 2-(4-(2-(5-chloro-2,4-dimethoxyphenyl)imidazo[1,2-a]pyridin-7-yl)piperazin-1-yl)-5-nitronicotinonitrile] | 14.9 | 610 | – |
| COc1cc(OC)c(-c2cn3ccc(N4CCN(c5cnc(N6CCC(N)CC6)nc5)CC4)cc3n2)cc1Cl [Example 350, 1-(5-(4-(2-(5-chloro-2,4-dimethoxyphenyl)imidazo[1,2-a]pyridin-7-yl)piperazin-1-yl)pyrimidin-2-yl)piperidin-4-amine] | 7.35 | 680 | – |
| COc1cc(OC)c(-c2cn3ccc(N4CCN(c5ccnc(N6CCN(C)CC6)n5)CC4)cc3n2)cc1Cl [Example 351, 2-(5-chloro-2,4-dimethoxyphenyl)-7-(4-(2-(4-methylpiperazin-1-yl)pyrimidin-4-yl)piperazin-1-yl)imidazo[1,2-a]pyridine] | 28.6 | 860 | – |
| COc1cc(OC)c(-c2cn3ccc(N4CCN(Cc5ncccn5)CC4)cc3n2)cc1Cl [Example 352, 2-(5-chloro-2,4-dimethoxyphenyl)-7-(4-(pyrimidin-2-ylmethyl)piperazin-1-yl)imidazo[1,2-a]pyridine] | 9.25 | 10000 | – |
| COc1cc(OC)c(-c2cn3ccc(N4CCN(c5cc(N6CCCCC6)ncn5)CC4)cc3n2)cc1Cl [Example 353, 2-(5-chloro-2,4-dimethoxyphenyl)-7-(4-(6-(piperidin-1-yl)pyrimidin-4-yl)piperazin-1-yl)imidazo[1,2-a]pyridine] | 41.9 | 780 | – |
| COc1cc(OC)c(-c2cn3ccc(N4CCN(c5ccnc(N6CCC(N)C6)n5)CC4)cc3n2)cc1Cl (stereo not drawn) [Example 354, 1-(4-(4-(2-(5-chloro-2,4-dimethoxyphenyl)imidazo[1,2-a]pyridin-7-yl)piperazin-1-yl)pyrimidin-2-yl)pyrrolidin-3-amine] | 12.9 | 490 | – |
| COc1cc(OC)c(-c2cn3ccc(N4CCN(c5cc(N6CCCC6)ncn5)CC4)cc3n2)cc1Cl [Example 355, 2-(5-chloro-2,4-dimethoxyphenyl)-7-(4-(6-(pyrrolidin-1-yl)pyrimidin-4-yl)piperazin-1-yl)imidazo[1,2-a]pyridine] | 38.8 | 670 | – |
| COc1cc(OC)c(-c2cn3ccc(N4CCN(c5nccc(N(C)C)n5)CC4)cc3n2)cc1Cl [Example 356, 2-(4-(2-(5-chloro-2,4-dimethoxyphenyl)imidazo[1,2-a]pyridin-7-yl)piperazin-1-yl)-N,N-dimethylpyrimidin-4-amine] | 60.6 | 380 | – |
| COc1cc(OC)c(-c2cn3ccc(N4CCN(c5ccnc(N6CCCC(O)C6)n5)CC4)cc3n2)cc1Cl (stereo not drawn) [Example 357, 1-(4-(4-(2-(5-chloro-2,4-dimethoxyphenyl)imidazo[1,2-a]pyridin-7-yl)piperazin-1-yl)pyrimidin-2-yl)piperidin-3-ol] | 25.8 | 600 | – |
| COc1cc(OC)c(-c2cn3ccc(N4CCN(c5cnc(N6CCN(C)CC6)nc5)CC4)cc3n2)cc1Cl [Example 358, 2-(5-chloro-2,4-dimethoxyphenyl)-7-(4-(2-(4-methylpiperazin-1-yl)pyrimidin-5-yl)piperazin-1-yl)imidazo[1,2-a]pyridine] | 17.1 | 390 | – |
| COc1cc(OC)c(-c2cn3ccc(N4CCN(c5nccc(N6CCNCC6)n5)CC4)cc3n2)cc1Cl [Example 359, 2-(5-chloro-2,4-dimethoxyphenyl)-7-(4-(4-(piperazin-1-yl)pyrimidin-2-yl)piperazin-1-yl)imidazo[1,2-a]pyridine dihydrochloride] | 12.2 | – | 400 |
| COc1cc(OC)c(-c2cn3ccc(N4CCN(c5cc(Cl)nc(N)n5)CC4)cc3n2)cc1Cl [Example 360, 4-chloro-6-(4-(2-(5-chloro-2,4-dimethoxyphenyl)imidazo[1,2-a]pyridin-7-yl)piperazin-1-yl)pyrimidin-2-amine] | 56 | 620 | – |
| COc1cc(OC)c(-c2cn3ccc(N4CCN(c5nc(N)nc(Cl)n5)CC4)cc3n2)cc1Cl [Example 361, 4-chloro-6-(4-(2-(5-chloro-2,4-dimethoxyphenyl)imidazo[1,2-a]pyridin-7-yl)piperazin-1-yl)-1,3,5-triazin-2-amine] | 43.3 | 870 | – |
| COc1cc(OC)c(-c2cn3ccc(N4CCN(c5ccnc(N6CCNC(C)C6)n5)CC4)cc3n2)cc1Cl (stereo not drawn) [Example 362, 2-(5-chloro-2,4-dimethoxyphenyl)-7-(4-(2-(3-methylpiperazin-1-yl)pyrimidin-4-yl)piperazin-1-yl)imidazo[1,2-a]pyridine] | 15.5 | 680 | – |
| COc1cc(OC)c(-c2cn3ccc(N4CCN(c5nccc(N6CCOCC6)n5)CC4)cc3n2)cc1Cl [Example 363, 4-(2-(4-(2-(5-chloro-2,4-dimethoxyphenyl)imidazo[1,2-a]pyridin-7-yl)piperazin-1-yl)pyrimidin-4-yl)morpholine] | 26.5 | 490 | – |
| CNc1ccnc(N2CCN(c3ccn4cc(-c5cc(Cl)c(OC)cc5OC)nc4c3)CC2)n1 [Example 364, 2-(4-(2-(5-chloro-2,4-dimethoxyphenyl)imidazo[1,2-a]pyridin-7-yl)piperazin-1-yl)-N-methylpyrimidin-4-amine] | 40.7 | – | 550 |
| COc1cc(OC)c(-c2cn3ccc(N4CCN(c5nccc(N)c5F)CC4)cc3n2)cc1Cl [Example 365, 2-(4-(2-(5-chloro-2,4-dimethoxyphenyl)imidazo[1,2-a]pyridin-7-yl)piperazin-1-yl)-3-fluoropyridin-4-amine formate] | 29.7 | – | 630 |
| COc1cc(OC)c(-c2cn3ccc(N4CCN(c5nccc(N6CCC(=O)CC6)n5)CC4)cc3n2)cc1Cl [Example 366, 1-(2-(4-(2-(5-chloro-2,4-dimethoxyphenyl)imidazo[1,2-a]pyridin-7-yl)piperazin-1-yl)pyrimidin-4-yl)piperidin-4-one] | 62.9 | 860 | – |
| COc1cc(OC)c(-c2cn3ccc(N4CCN(c5ccnc(N6CCC(CO)C6)n5)CC4)cc3n2)cc1Cl (stereo not drawn) [Example 367, (1-(4-(4-(2-(5-chloro-2,4-dimethoxyphenyl)imidazo[1,2-a]pyridine-7-yl)piperazin-1-yl)pyrimidin-2-yl)pyrrolidin-3-yl)methanol] | 26.2 | 980 | – |
| COc1cc(OC)c(-c2cn3ccc(N4CCCN(c5ncccn5)CC4)cc3n2)cc1Cl [Example 368, 2-(5-chloro-2,4-dimethoxyphenyl)-7-(4-(pyrimidin-2-yl)-1,4-diazepan-1-yl)imidazo[1,2-a]pyridine] | 15.7 | 990 | – |
